Entries after “also recorded” stand apart in the source; their conditions may differ. Where two headings read alike, the source gives them in different places.

A short description of data set [1]: Evaluation of antioxidants for LEV stability in raw tablet compositions (Example 6). How it is done:
The following procedures were used to identify the preferred antioxidant(s) suitable stabilizing LEV against oxidative degradation.
A powder blend containing the following ingredients in the amounts indicated was prepared.
A printing fluid containing the following ingredients in the amounts indicated was prepared.
For example, the amount of antioxidant would be “(IIG daily limit)/2” for a 1000 mg tablet administered twice daily. It should be understood that IIG limits are periodically changed by regulatory agencies. Accordingly, the limits specified below should be considered approximations and not as absolute limits to the amount of antioxidant that can be included in a dosage form.
The antioxidant was mixed with 6 mL of printing fluid. That mixture was then mixed with 30 g of powder blend to form a raw tablet composition, each of which was exposed to the following conditions: Condition 1—store composition at 70 C in tightly sealed glass jar; Condition 2—store composition at 50 C in loosely covered glass jar; and Condition 3—store composition at 40 C/75% RH in open glass jar.
The samples were subsequently analyzed by HPLC/MS and the identity of two key degradants was determined by comparison to standards. The key degradants were levetiracetam acid and oxo-levetiracetam.

For data set [2] the following is noted: cited from earlier work.
Data set [3] can be described thus: Oxidative degradation of LEV in 3DP dosage form, HPLC/MS. In kind it is physicochemical. As to conditions: antioxidant absent, oxidative excipient (povidone or silica with peroxide impurity) present. The protocol: The stability of LEV to oxidative degradation when included in a 3DP dosage form of the invention was determined by exposing finished dosage forms to heat. The formation of degradants was observed and monitored by HPLC/MS as detailed below. […] Povidone and silica, however, are important functional ingredients. Accordingly, the invention provides a stable rapidly dispersible dosage form comprising LEV, oxidative excipient, antioxidant, binder and disintegrant, wherein the matrix comprises 0.1% by wt or less of an oxidative degradant of LEV after storage for six months at 21° C. and 75% RH.
The following procedures were used to analyze three-dimensionally printed solid porous orodispersible matrices and in support of drug-stability studies.
Samples were prepared by transferring approximately 380 mg of sample to a 50-mL volumetric flask with 30 mL of Diluent. The sample was sonicated for 10 minutes then filled to volume with Diluent. A portion was filtered through a 0.22 μm nylon filter, discarding the first 3-5 mL.
Mass spectrophotometry was conducted by directly infusing a sodium formate solution into the mass spectrometer through the lock spray at 100 μL/min using a syringe pump. The sodium formate peak at m/z 158.9646126 was used for accurate mass analysis. The accurate masses were used for elemental composition analysis using the MassLynx software. […]

The conditions of data set [4]: accelerated (60° C.) stress: acidic, alkaline, aqueous, oxidative, thermal or photo; Shah 2012; cited from earlier work.
Where [5] appears, read: antioxidant at half IIG daily limit in raw tablet composition, 70 C sealed, 50 C loosely covered, 40 C/75% RH open.

On to `Cc1c(C)c2c(c(C)c1O)CC[C@@](C)(CCC[C@H](C)CCC[C@H](C)CCCC(C)C)O2` [Vitamin E, Alpha-tocopherol], for which, in data set [1], the “stability against oxidative degradation and color formation” value (from here on “stability”) is “improved stability against oxidative degradation and against color formation”.

In the case of `CC[C@@H](C(N)=O)N1CCCC1=O` [Levetiracetam, (S)-2-(2-oxopyrrolidin-1-yl)butanamide], the solubility in acetonitrile in data set [2] (acetonitrile) was 5.7 g/100 mL. In addition, the solubility in chloroform in data set [2] (chloroform) was 65.3 g/100 mL. The solubility in ethanol in data set [2] (ethanol) was 16.5 g/100 mL. In addition, in data set [2] (methanol), the solubility in methanol was 53.6 g/100 mL. Moreover, the solubility in n-hexane result in data set [2] (n-hexane) is “practically insoluble”. Besides, the solubility in water in data set [2] (water) was 104.0 g/100 mL. Also, the “oxidative degradation of LEV in 3DP dosage form exposed to heat” value in data set [3] was “undergoes oxidative degradation to form oxo-levetiracetam”. For the same compound, in data set [4], the degradation under stress entry is given as “substantial degradation”.

Take `O=S([O-])O.[Na+]` [sodium bisulfite, Sodium bisulfite]: the “stability” value in data set [1] (setting [5]) was “improved stability against oxidative degradation and against color formation”; in data set [1] (antioxidant at half IIG daily limit in raw tablet composition, 70 C sealed, 50 C loosely covered, 40 C/75% RH open, listed as Sodium bisulfite) it was “best results”.

Consider `O=S([O-])[O-].[Na+].[Na+]` [sodium sulfite, Sodium sulfite], for which the “stability” value in data set [1] (setting [5]) is “improved stability against oxidative degradation and against color formation; also recorded: best results”.

Turning to `COc1ccc(O)c(C(C)(C)C)c1` [BHA, Butylated hydroxyanisole], the “stability” value in data set [1] (setting [5]) is “improved stability against oxidative degradation and against color formation; also recorded: best results”.

Consider `CSCC[C@H](N)C(=O)O` [methionine, Methionine], for which the “stability” value in data set [1] is “improved stability against oxidative degradation and against color formation”.
